US9375010B2 (priority 2013, dated 2016)

Columns and labels:
[1] = test system: Phytophthora infestans; type: in vivo; settings: 500 ppm active ingredient, preventive spray on young tomato plants, evaluated 5 days after inoculation
[2] = log P by HPLC on reversed phase columns (EEC directive 79/831 Annex V.A8); type: physicochemical; settings: method [a]: LC-MS at pH 2.7, 0.1% formic acid in water / acetonitrile gradient, Table 1 compounds; for chromatographic logP: reversed phase HPLC column
Method: Calibration was done with not branched alkan2-ones (with 3 to 16 carbon atoms) with known log P-values (measurement of log P values using retention times with linear interpolation between successive alkanones). lambda-maX-values were determined using UV-spectra from 200 nm to 400 nm and the peak values of the chromatographic signals.

[3] = test system: Septoria tritici; assay: In vivo preventive test on Septoria tritici (leaf spot on wheat); settings: 500 ppm active ingredient, preventive spray on young wheat plants, evaluated 24 days after inoculation
Method: The tested active ingredients are prepared by homogenization in a mixture of acetone/Dimethyl sulfoxide/tween®, and then diluted with water to obtain the desired active material concentration.
The young plants of wheat are treated by spraying the active ingredient prepared as described above. Control plants are treated only with an aqueous solution of acetone/Dimethyl sulfoxide/tween®.
After 24 hours, the plants are contaminated by spraying the leaves with an aqueous suspension of Septoria tritici spores. The contaminated wheat plants are incubated for 72 hours at 18° C. and at 100% relative humidity and then for 21 days at 20° C. and at 90% relative humidity.
The test is evaluated 24 days after the inoculation. 0% means an efficacy which corresponds to that of the control plants while an efficacy of 100% means that no disease is observed.

[4] = test system: Plasmopara viticola; assay: Plasmopara test (grapevines)/preventive; type: in vivo; settings: 10 ppm active ingredient, preventive spray on young grapevine plants, evaluated 6 days after inoculation
Method: To produce a suitable preparation of active compound, 1 part by weight of active compound is mixed with the stated amounts of solvent and emulsifier, and the concentrate is diluted with water to the desired concentration.
To test for preventive activity, young plants are sprayed with the preparation of active compound at the stated rate of application. After the spray coating has dried on, the plants are inoculated with an aqueous spore suspension of Plasmopara viticola and then remain for 1 day in an incubation cabinet at approximately 20° C. and a relative atmospheric humidity of 100%. The plant is subsequently placed for 4 days in a greenhouse at approximately 21° C. and a relative atmospheric humidity of approximately 90%. The plants are then misted and placed for 1 day in an incubation cabinet.
The test is evaluated 6 days after the inoculation. 0% means an efficacy which corresponds to that of the untreated control, while an efficacy of 100% means that no disease is observed.

Compound	% efficacy [1]	LogP [2]	% efficacy [3]	% efficacy [4]	chromatographic logP [2]
Cn1c(C(=NOCc2csc(C#CCc3ccccc3)n2)c2ccccc2)noc1=O [Example 19]	90%	4.37^[a]	79%	–	–
CCCCON=C(C)Nc1cccc(CO/N=C(/c2ccccc2)c2noc(=O)n2C)n1 [Example 7]	100%	3.69^[a]	–	–	–
Cn1c(/C(=N\OCc2cccc(C#CC3CC3)n2)c2ccccc2)noc1=O [Example 13]	–	3.65^[a]	–	–	–
CCCCC#Cc1cccc(CO/N=C(/c2ccccc2)c2nc(=O)on2C)n1 [Example 10]	100%	3.81^[a]	–	96%	–
CCCCON=C(C)Nc1cccc(CO/N=C(/c2ccccc2)c2nc(=O)on2C)n1 [Example 5]	–	3.35^[a]	–	–	–
CC(=NO)Nc1cccc(CO/N=C(/c2ccccc2)c2nc(=O)on2C)n1 [Example 1]	99%	1.29^[a]	–	–	–
CC(=NO)Nc1cccc(CO/N=C(/c2ccccc2)c2noc(=O)n2C)n1 [Example 2, N′-hydroxy-N-{6-[({[(Z)-(4-methyl-5-oxo-4,5-dihydro-1,2,4-oxadiazol-3-yl)(phenyl)methylene]amino}oxy)methyl]pyridin-2-yl}ethanimidamide]	100%	–	71%	–	1.86
Cn1c(/C(=N\OCc2cccc(C#Cc3ccccc3)n2)c2ccccc2)noc1=O [Example 15]	80%	4.26^[a]	–	–	–
Cn1c(C(=NOCc2cccc(C=Cc3ccccc3)n2)c2ccccc2)noc1=O [Example 23]	92%	4.37^[a]	97%	–	–
Cn1oc(=O)nc1C(=NOCc1csc(C=CCc2ccccc2)n1)c1ccccc1 [Example 20]	–	3.85^[a]	–	–	–
Cn1oc(=O)nc1/C(=N\OCc1csc(C#CC2CCCCC2)n1)c1ccccc1 [Example 14]	–	4.44^[a]	–	–	–
Cn1oc(=O)nc1/C(=N\OCc1csc(C#CC2CC2)n1)c1ccccc1 [Example 12, 3-[(Z)-({[2-(cyclopropylethynyl)-1,3-thiazol-4-yl]methoxy}imino)(phenyl)methyl]-2-methyl-1,2,4-oxadiazol-5(2H)-one]	100%	–	–	73%	3.13
Cn1c(/C(=N\OCc2csc(C#CC3CCCCC3)n2)c2ccccc2)noc1=O [Example 16]	78%	5.08^[a]	–	–	–
CC(=NOCc1ccccc1)Nc1cccc(CO/N=C(/c2ccccc2)c2nc(=O)on2C)n1 [Example 8]	100%	3.09^[a]	–	92%	–
Cn1c(C(=NOCc2csc(C#CC3CC3)n2)c2ccccc2)noc1=O [Example 17]	99%	3.76^[a]	–	–	–
Cn1oc(=O)nc1C(=NOCc1csc(C#CCc2ccccc2)n1)c1ccccc1 [Example 18]	98%	3.74^[a]	–	–	–
Cn1oc(=O)nc1/C(=N\OCc1cccc(C#CC(C)(C)C)n1)c1ccccc1 [Example 11]	100%	3.72^[a]	–	100%	–
Cn1c(C(=NOCc2cccc(C=CC3CC3)n2)c2ccccc2)noc1=O [Example 21]	–	3.48^[a]	–	–	–
Cn1oc(=O)nc1/C(=N\OCc1cccc(C#Cc2ccccc2)n1)c1ccccc1 [Example 4, 2-methyl-3-[(Z)-phenyl({[6-(phenylethynyl)pyridin-2-yl]methoxy}imino)methyl]-1,2,4-oxadiazol-5(2H)-one]	98%	–	–	–	3.63
Cn1oc(=O)nc1C(=NOCc1csc(C=CC2CCCCC2)n1)c1ccccc1 [Example 22]	95%	4.64^[a]	71%	–	–
CC(=NOCC1CC1)Nc1cccc(CO/N=C(/c2ccccc2)c2noc(=O)n2C)n1 [Example 3, N′-(cyclopropylmethoxy)-N-{6-[({[(Z)-(4-methyl-5-oxo-4,5-dihydro-1,2,4-oxadiazol-3-yl)(phenyl)methylene]amino}oxy)methyl]pyridin-2-yl}ethanimidamide]	99%	–	–	–	3.39
CC(=NOCc1ccccc1)Nc1cccc(CO/N=C(/c2ccccc2)c2noc(=O)n2C)n1 [Example 9]	100%	3.73^[a]	–	–	–
Cn1oc(=O)nc1/C(=N\OCc1cccc(C#CC2CC2)n1)c1ccccc1 [Example 6]	–	3.02^[a]	–	–	–
